Source: US20100041716A1, “[…] USE IN TREATING OR PREVENTING HYPERCHOLESTEROLEMIA” (MITOS PHARMACEUTICALS, INC., priority 2006, published 2010)

Legend:
[1] = test system: NAD(P) dependent steroid dehydrogenase-like (NSDHL); assay: Gene expression in white adipose tissue of mice, Affymetrix MOE430A 2.0 microarray; type: in vivo
Method: (§1) In a gene expression study, Tempol was administered to experimental mice at a dose of 5 g/kg of diet from 12 months through 15 months. Mice receiving the same diet without the addition of Tempol were used as a negative control. At the age of 15 months, the white adipose tissue of the experimental animals was obtained. The expression of a broad spectrum of genes in the adipose tissue was assessed using chip-based microarray technology. Specifically, in this case an Affymetrix MOE430A 2.0 array, containing 12,960 genes, was employed. Such chips are well known in the art and are widely used to assess gene expression.

[2] = test system: farnesyl diphosphate synthase (FDPS); assay: as above; type: in vivo
Method: as §1

[3] = test system: lanosterol synthase (LSS); assay: as above; type: in vivo
Method: as §1

FDPS = assay: Protein level in patient after Tempol treatment; type: in vivo, human; details: 1500 mg per day for 180 days
Method: (§2) A 70-kilogram patient having levels of fasting plasma total cholesterol indicative of hypercholesterolemia is administered a dose of 1500 mg of Tempol per day for 180 days. This may be administered in a single dose, or may be administered as a number of smaller doses over a 24-hour period: for example, three 500-mg doses at eight-hour intervals. Following treatment, the protein level of each of LSS, FDPS, and NSDHL is reduced.
(§3) A 70-kilogram patient at risk for developing hypercholesterolemia is administered a dose of 1500 mg of Tempol per day for 180 days. This may be administered in a single dose, or may be administered as a number of smaller doses over a 24-hour period: for example, three 500-mg doses at eight-hour intervals. Following treatment, the protein level of each of LSS, FDPS, and NSDHL is reduced.

LSS = assay: Protein level in patient after Tempol treatment; type: in vivo, human; details: 1500 mg per day for 180 days
Method: as §2, §3

NSDHL = assay: Protein level in patient after Tempol treatment; type: in vivo, human; details: 1500 mg per day for 180 days
Method: as §2, §3

[4] = adipose tissue of mice treated with Tempol
[5] = Example 1: 70-kilogram patient with hypercholesterolemia
[6] = Example 2: 70-kilogram patient at risk for hypercholesterolemia

**Q.** `CC1(C)CC(O)CC(C)(C)N1[O]` [Tempol, 4-hydroxy-2,2,6,6-tetramethylpiperidine-1-oxyl] was tested. Which Fold change ([1]; NSDHL expression, Tempol-treated vs control mice, white adipose tissue) did it give?
**A.** −1.64

**Q.** And the “Mean (Tempol-treated mice)” value ([1]; NSDHL expression, white adipose tissue, 5 g/kg of diet from 12 through 15 months)?
**A.** 1398

**Q.** And the “expression of NSHDL decreased” value [1, 4]?
**A.** 1.64 fold

**Q.** And the Fold change ([2]; FDPS expression, Tempol-treated vs control mice, white adipose tissue)?
**A.** −2.08

**Q.** What about the “Mean (Tempol-treated mice)” value ([2]; FDPS expression, white adipose tissue, 5 g/kg of diet from 12 through 15 months) of the same molecule?
**A.** 1274

**Q.** And the “expression of FDPS decreased” value [2, 4]?
**A.** 2.08 fold

**Q.** What about the Fold change ([3]; LSS expression, Tempol-treated vs control mice, white adipose tissue) of the same molecule?
**A.** −2.33

**Q.** And the “Mean (Tempol-treated mice)” value ([3]; LSS expression, white adipose tissue, 5 g/kg of diet from 12 through 15 months)?
**A.** 224

**Q.** What about the “expression of LSS decreased” value [3, 4] of the same molecule?
**A.** 2.33 fold

**Q.** What about the “protein level of FDPS” value (FDPS; [5]) of the same molecule?
**A.** reduced

**Q.** What about the “protein level of FDPS” value (FDPS; [6]) of the same molecule?
**A.** reduced

**Q.** What about the “protein level of LSS” value (LSS; [5]) of the same molecule?
**A.** reduced

**Q.** And the “protein level of LSS” value (LSS; [6])?
**A.** reduced

**Q.** And the “protein level of NSDHL” value (NSDHL; [5])?
**A.** reduced

**Q.** And the “protein level of NSDHL” value (NSDHL; [6])?
**A.** reduced
